“Also recorded” adds a separate entry of the source.
Columns and labels:
guinea pig penis = assay: Topical application of nitrates to the penis of guinea pigs (change in penile volume); format: in vivo, male outbred Hartley guinea pigs; conditions: for AUC / AUC, % of 1,5-PDN / Peak Effect (% change) / Peak Effect, % of 1,5-PDN / Time of Peak Effect: guinea pig, in vivo
Source text: Sixteen (16) male outbred Hartley guinea pigs were weighed and placed into treatment groups as follows:
The animals were placed in dorsal recumbency and held in place by restraints. The penis was extruded from the prepuce. Care was taken to not manipulate the penis. Length and diameter measurements were made using digital calipers. The length measurement was taken from the prepuce to the tip of the glans when the penis was extended. The diameter was taken 0.5 cm proximally from the tip of the glans.
The appropriate amount of test material was applied with a Wiretrol™ pipette to the base of the exposed penis. When application was complete, a timer was started. Measurements were taken at 0, 1, 2, 5, 10 and 15 minutes after application or until detumescence was observed.
The same procedure was followed to topically apply a series of various other nitrate and dinitrate compounds (in neat form) to the penis of guinea pigs. A summary of the activity of this series of nitrate compounds is shown in Table 2, with the AUC and peak effect values for each compound compared to 1,5-PDN.
The same test procedure was followed as in Example 3, but applying a 10% solution of NTG to the penis in varying dosage amounts.
Twelve (12) male Hartley guinea pigs were placed into treatment groups as follows: […]

penis = conditions: cited from earlier work
corpus cavernosum = assay: Intracavernosal injection in anesthetized rats (cavernosal and arterial blood pressure)
rat aortic rings = assay: Vascular reactivity: relaxation of rat aortic rings precontracted with phenylephrine; format: cell-based, Sprague-Dawley rats; conditions: FIG. 11, rat aortic strips
Source text: Aortic rings (2-3 mm wide) from Sprague-Dawley rats were isolated and placed in a tissue bath. The vessels were precontracted with small amounts of phenylephrine. A transducer connected to a recorder was used to assess changes in tension. As noted in FIG. 10, there was no difference in vascular relaxation, either in potency or efficacy, between 1,5-PDN and 1,5-pentane dinitrite.

[1] = Intravenous injection of NTG vs. 1,5-pentane dinitrate in conscious rats (mean arterial blood pressure); format: in vivo, rat; conditions: 30 μg
Experimental: Rats (n=3) with indwelling catheters in the femoral artery for blood pressure measurements and vein for drug administration were given 1 dose of NTG (30 μg) and 6 doses of 1,5-PDN (30 μg-2000 μg) or vehicle (ethanol) in the conscious state. Changes in mean arterial blood pressure (diastolic blood pressure+1/3 (systolic-diastolic blood pressure)) were assessed after each dose of nitrate was given. About 0.5 hr to 1 hr separated the administration of each drug and dose.

penile smooth muscle = conditions: cited from earlier work

Q: Which AUC (guinea pig penis) does the source give for C=CCCCO[N+](=O)[O-] [1-Pentene-5-nitrate] here?
A: 309

Q: And the “AUC, % of 1,5-PDN” value (guinea pig penis)?
A: 70%

Q: What about the “Peak Effect (% change)” value (guinea pig penis) of the same compound?
A: 35.4 % change

Q: What about the “Peak Effect, % of 1,5-PDN” value (guinea pig penis) of the same compound?
A: 91%

Q: What about the “Time of Peak Effect” value (guinea pig penis) of the same compound?
A: 2 min

Q: Which results are given for CC(C)=CCO[N+](=O)[O-] [2-Methyl-2-butene-4-nitrate]?
A: AUC (guinea pig penis): 305; AUC, % of 1,5-PDN (guinea pig penis): 69%; Peak Effect (% change) (guinea pig penis): 32.6 % change; Peak Effect, % of 1,5-PDN (guinea pig penis): 84%; Time of Peak Effect (guinea pig penis): 5 min

Q: Which AUC (guinea pig penis) does the source give for CCCC(C)O[N+](=O)[O-] (centres unmarked) [2-Pentane nitrate] here?
A: 323

Q: And the “AUC, % of 1,5-PDN” value (guinea pig penis)?
A: 73%

Q: What about the “Peak Effect (% change)” value (guinea pig penis) of the same compound?
A: 36.0 % change

Q: And the “Peak Effect, % of 1,5-PDN” value (guinea pig penis)?
A: 93%

Q: What about the “Time of Peak Effect” value (guinea pig penis) of the same compound?
A: 5 min

Q: Which AUC (guinea pig penis) does the source give for O=[N+]([O-])OC1CCCC1 [Cyclopentyl nitrate] here?
A: 380

Q: What about the “AUC, % of 1,5-PDN” value (guinea pig penis) of the same compound?
A: 86%

Q: And the “Peak Effect (% change)” value (guinea pig penis)?
A: 31.8 % change

Q: And the “Time of Peak Effect” value (guinea pig penis)?
A: 10 min

Q: For CC(C)CCO[N+](=O)[O-] [Isoamyl nitrate], which AUC (guinea pig penis) is on record?
A: 309

Q: And the “AUC, % of 1,5-PDN” value (guinea pig penis)?
A: 70%

Q: What about the “Peak Effect (% change)” value (guinea pig penis) of the same compound?
A: 40.3 % change

Q: What about the “Peak Effect, % of 1,5-PDN” value (guinea pig penis) of the same compound?
A: 104%

Q: What about the “Time of Peak Effect” value (guinea pig penis) of the same compound?
A: 2 min

Q: For CC(C)CO[N+](=O)[O-] [Isobutyl nitrate], which AUC (guinea pig penis) is on record?
A: 367

Q: What about the “Peak Effect (% change)” value (guinea pig penis) of the same compound?
A: 38.1 % change

Q: What about the “Time of Peak Effect” value (guinea pig penis) of the same compound?
A: 2 min

Q: What does the source list for O=[N+]([O-])OCC(CO[N+](=O)[O-])O[N+](=O)[O-] [NTG, nitroglycerin]?
A: patients with erections sufficient for vaginal penetration (penis; at home): 30 % of patients; patients with some response (penis; in vivo): 71 % of patients; change in intracavernosal pressure (corpus cavernosum; anesthetized rats, FIGS. 6-8): relatively small, dose-dependent increases in intracavernosal pressure; effect on systemic arterial blood pressure (corpus cavernosum; anesthetized rats, FIGS. 6-8): almost equivalent systemic ("downstream") reductions in arterial blood pressure; systemic reduction in arterial blood pressure (corpus cavernosum; at the highest dose used): over 30 mmHg; effect on penile volume (guinea pig penis; topical, FIGS. 1-3, 1,5-PDN vs saline, 10% NTG solution vs 1,5-PDN): minimal effect on penis volume as compared to 1,5-PDN; vascular relaxation: NTG vs 1,5-PDN (rat aortic rings): no appreciable difference in the vascular relaxation; decrease in arterial pressure [1]: ~25%; headache, systemic blood pressure (penile smooth muscle; in vivo): headaches were a common occurrence; also recorded: decrease in systemic blood pressure and development of headache; relaxation of penile smooth muscle and vascular tissue (penile smooth muscle; in vivo): causes relaxation of penile smooth muscle and vascular tissue, including cavernosal tissue; response compared with papaverine or placebo (penile smooth muscle; only one trial): better than papaverine, another vasodilator, or placebo

Source: patent US6056966A, “Method and compositions for treating impotence” (Baker Norton Pharmaceuticals, Inc., priority 1998, dated 2000)
